The IC50 is the concentration needed to halve the response being measured.

Each structure is given as a SMILES string. A value given as a limit tells only on which side of the number the result lay.

human NaV subtype, sequence (Q15858 whole entry): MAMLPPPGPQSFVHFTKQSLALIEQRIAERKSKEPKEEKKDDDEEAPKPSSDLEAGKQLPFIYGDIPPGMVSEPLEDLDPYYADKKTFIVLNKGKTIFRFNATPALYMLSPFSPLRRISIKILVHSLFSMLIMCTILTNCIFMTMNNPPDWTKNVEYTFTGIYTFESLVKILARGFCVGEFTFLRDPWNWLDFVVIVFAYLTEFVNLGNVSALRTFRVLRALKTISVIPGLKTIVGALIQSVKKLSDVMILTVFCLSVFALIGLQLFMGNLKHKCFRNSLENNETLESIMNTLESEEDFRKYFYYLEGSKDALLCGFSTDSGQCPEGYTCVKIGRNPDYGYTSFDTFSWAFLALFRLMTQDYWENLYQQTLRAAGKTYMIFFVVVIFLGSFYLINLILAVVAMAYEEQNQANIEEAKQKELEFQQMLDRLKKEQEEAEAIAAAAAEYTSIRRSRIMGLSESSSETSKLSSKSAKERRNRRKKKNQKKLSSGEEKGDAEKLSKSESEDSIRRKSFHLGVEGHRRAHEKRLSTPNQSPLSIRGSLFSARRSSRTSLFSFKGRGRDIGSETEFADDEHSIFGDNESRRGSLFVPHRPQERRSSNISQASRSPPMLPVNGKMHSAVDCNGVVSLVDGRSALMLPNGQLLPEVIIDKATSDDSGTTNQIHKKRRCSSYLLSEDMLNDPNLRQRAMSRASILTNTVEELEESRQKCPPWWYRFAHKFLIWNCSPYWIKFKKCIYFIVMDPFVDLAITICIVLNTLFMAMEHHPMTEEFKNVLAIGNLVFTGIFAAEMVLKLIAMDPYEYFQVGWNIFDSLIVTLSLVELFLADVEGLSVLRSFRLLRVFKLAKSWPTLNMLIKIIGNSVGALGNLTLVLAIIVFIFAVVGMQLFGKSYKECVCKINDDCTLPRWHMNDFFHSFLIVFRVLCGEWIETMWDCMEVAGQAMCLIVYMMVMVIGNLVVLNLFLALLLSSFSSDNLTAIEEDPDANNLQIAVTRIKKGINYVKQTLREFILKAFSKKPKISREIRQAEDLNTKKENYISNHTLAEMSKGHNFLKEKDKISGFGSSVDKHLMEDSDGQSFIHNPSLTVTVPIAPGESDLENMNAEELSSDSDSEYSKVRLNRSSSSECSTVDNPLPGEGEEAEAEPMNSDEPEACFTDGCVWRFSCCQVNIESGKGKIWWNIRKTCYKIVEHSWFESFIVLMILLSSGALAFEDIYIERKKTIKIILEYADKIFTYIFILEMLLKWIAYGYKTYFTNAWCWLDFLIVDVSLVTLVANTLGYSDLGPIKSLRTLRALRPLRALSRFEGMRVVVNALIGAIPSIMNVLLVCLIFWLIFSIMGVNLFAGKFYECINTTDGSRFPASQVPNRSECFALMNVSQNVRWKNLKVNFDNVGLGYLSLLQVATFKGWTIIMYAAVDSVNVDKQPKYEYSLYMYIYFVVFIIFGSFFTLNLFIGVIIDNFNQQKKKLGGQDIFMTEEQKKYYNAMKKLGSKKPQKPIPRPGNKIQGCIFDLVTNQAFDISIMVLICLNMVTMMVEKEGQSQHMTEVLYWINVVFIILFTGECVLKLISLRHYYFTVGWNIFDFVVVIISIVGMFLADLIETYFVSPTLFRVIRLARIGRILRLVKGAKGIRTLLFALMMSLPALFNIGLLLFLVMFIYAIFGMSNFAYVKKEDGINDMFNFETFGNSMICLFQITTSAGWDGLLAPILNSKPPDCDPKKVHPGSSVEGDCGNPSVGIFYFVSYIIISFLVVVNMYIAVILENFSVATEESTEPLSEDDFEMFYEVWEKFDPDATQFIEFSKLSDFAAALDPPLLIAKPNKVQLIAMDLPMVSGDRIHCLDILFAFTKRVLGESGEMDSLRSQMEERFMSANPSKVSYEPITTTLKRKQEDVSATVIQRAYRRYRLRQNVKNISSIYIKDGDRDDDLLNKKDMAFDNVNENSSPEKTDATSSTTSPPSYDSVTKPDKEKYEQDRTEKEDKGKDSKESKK

This assay deals with human NaV subtype. Description: E-VIPR optical membrane potential assay with electrical stimulation. To be noted: active against one or more sodium channels; assay and NaV subtype not specified for Table 3; read-out: Binned Activity Data (IC50). The class given is cell-based. From the text:
E-VIPR Optical Membrane Potential Assay Method with Electrical Stimulation
Sodium channels are voltage-dependent proteins that can be activated by inducing membrane voltage changes by applying electric fields. The electrical stimulation instrument and methods of use are described in Ion Channel Assay Methods PCT/US01/21652, herein incorporated by reference and are referred to as E-VIPR. The instrument comprises a microtiter plate handler, an optical system for exciting the coumarin dye while simultaneously recording the coumarin and oxonol emissions, a waveform generator, a current- or voltage-controlled amplifier, and a device for inserting electrodes in well. Under integrated computer control, this instrument passes user-programmed electrical stimulus protocols to cells within the wells of the microtiter plate.
24 hours before the assay on E-VIPR, HEK cells expressing human NaV subtype, like NaV 1.7, are seeded in 384-well poly-lysine coated plates at 15,000-20,000 cells per well. Other subtypes are performed in an analogous mode in a cell line expressing the NaV of interest. HEK cells are grown in media (exact composition is specific to each cell type and NaV subtype) supplemented with 10% FBS (Fetal Bovine Serum, qualified; GibcoBRL #16140-071) and 1% Pen-Strep (Penicillin-Streptomycin; GibcoBRL #15140-122). Cells are grown in vented cap flasks, in 90% humidity and 10% CO2, to 100% confluence. They are usually split by trypsinization 1:10 or 1:20, depending on scheduling needs, and grown for 2-3 days before the next split.
100 mg/mL Pluronic F-127 (Sigma #P2443), in dry DMSO
Compound Plates: 384-well round bottom plate, e.g. Corning 384-well Polypropylene Round Bottom #3656
Cell Plates: 384-well tissue culture treated plate, e.g. Greiner #781091-1B
Bath1 buffer. Glucose 10 mM (1.8 g/L), Magnesium Chloride (Anhydrous), 1 mM (0.095 g/L), Calcium Chloride, 2 mM (0.222 g/L), HEPES 10 mM (2.38 g/L), Potassium Chloride, 4.5 mM (0.335 g/L), Sodium Chloride 160 mM (9.35 g/L).
Hexyl Dye Solution: Bath1 Buffer+0.5% β-cyclodextrin (make this prior to use, Sigma #C4767), 8 μM CC2-DMPE+DiSBAC6(3). To make the solution Add volume of 10% Pluronic F127 stock equal to volumes of CC2-DMPE+DiSBAC6(3). The order of preparation is first mix Pluronic and CC2-DMPE, then add DiSBAC6(3) while vortexing, then add Bath1+β-Cyclodextrin.
1) Pre-spot compounds (in neat DMSO) into compound plates. Vehicle control (neat DMSO), the positive control (20 mM DMSO stock tetracaine, 125 μM final in assay) and test compounds are added to each well at 160× desired final concentration in neat DMSO. Final compound plate volume will be 80 μL (80-fold intermediate dilution from 1 μL DMSO spot; 160-fold final dilution after transfer to cell plate). Final DMSO concentration for all wells in assay is 0.625%.
2) Prepare Hexyl Dye Solution.
3) Prepare cell plates. On the day of the assay, medium is aspirated and cells are washed three times with 100 μL of Bathl Solution, maintaining 25 μL residual volume in each well.
4) Dispense 25 μL per well of Hexyl Dye Solution into cell plates. Incubate for 20-35 minutes at room temp or ambient conditions.
5) Dispense 80 μL per well of Bathl into compound plates. Acid Yellow-17 (1 mM) is added and Potassium Chloride can be altered from 4.5 to 20 mM depending on the NaV subtype and assay sensitivity.
6) Wash cell plates three times with 100 μL per well of Bathl, leaving 25 μL of residual volume. Then transfer 25 uL per well from Compound Plates to Cell Plates. Incubate for 20-35 minutes at room temp/ambient condition
7) Read Plate on E-VIPR. Use the current-controlled amplifier to deliver stimulation wave pulses for typically 9 seconds and a scan rate of 400 Hz. A pre-stimulus recording is performed for 0.5 seconds to obtain the un-stimulated intensities baseline. The stimulatory waveform is applied for 9 seconds followed by 0.5 seconds of post-stimulation recording to examine the relaxation to the resting state. […]
`COC(=O)C(C)(C)c1ccc(C(=O)N2CCC3(CC2)Oc2ccccc2-c2c3cnn2C)cc1OC` [Compound 403]: the 50% inhibitory concentration (IC50) is under 2000 nM.

Regarding `COc1cc(C(=O)N2CCC3(CC2)Oc2ccccc2-n2c(C#N)ccc23)ccc1OC[C@@H](O)CO` [Compound 680], the IC50 was under 2000 nM.

For the compound `C[C@](O)(CO)c1ccc(C(=O)N2CCC3(CC2)Oc2ccccc2-n2c(C(F)(F)F)ccc23)cc1` [Compound 640], the 50% inhibitory concentration (IC50) is under 2000 nM.

Regarding `COc1cc(C(=O)N2CCC3(CC2)Oc2cc(F)ccc2-n2cccc23)ccc1OC[C@H](O)CO` [Compound 606], the IC50 was under 2000 nM.

As to `N#Cc1ccc2n1-c1ccccc1OC21CCN(C(=O)c2ccc(C(F)(F)F)cc2)CC1` [Compound 481], the IC50 is over 5000 nM.

Consider `Cc1cc(C(=O)N2CCC3(CC2)Oc2ccccc2-n2c(C#N)ccc23)ccc1[C@@](C)(O)CO` [Compound 54], for which the IC50 was under 2000 nM.

Source of the values: US20140171427A1, “Heterocyclic chromene-spirocyclic piperidine amides as modulators of ion channels” (VERTEX PHARMACEUTICALS INCORPORATED, priority 2010, published 2014).
